US7411003B1, “Inhibition of Hepatitis B virus by cyclohexenone compounds from Antrodia camphorata” (Golden Biotechnology Corporation, priority 2007, dated 2008)

Columns and labels:
HbsAg = experiment: Synthesis/secretion of HbsAg in hepatoma cell line, semi-quantitative ELISA; assay type: cell-based, hepatitis B virus; settings: HepG2 2.2.1 cells, 22 hours
Experimental: (§1) The effects of cyclohexenone compounds of Antrodia camphorata purified from Example 1 on synthesis of HbsAg and HbeAg were tested in this example. The compound 4-hydroxy-2,3-dimethoxy-6-methyl-5(3,7,11-trimethyl-dodeca-2,6,10-trienyl)-cyclohex-2-enone from example 1 was added into the culture media of hepatoma cell line HepG2 2.2.1 to determine the synthesis of HbsAg and HbeAg with the semi-quantitative enzyme-linked immunoabsorbent assay (ELISA). These two makers were used to assess the effectiveness of cyclohexenone in HBV inhibition. […]
(§2) The HepG2 2.2.1 cells were cultivated in minimum essential medium (MEM, Gibco Co., USA) containing 12 essential amino acids, glutamine, 8 vitamins, and supplemented with 10% fetal bovine serum and 200 μg/ml of antibiotic G418 for 24 hours. […] The assay was based on formation of sandwich complexes of antibody-antigen-antibody/enzyme and stained with O-phenylenediamine (OPD) color development solution and the results were expressed as absorbance units at 450 nm. Specimens with absorbance values above the cut off value are taken as positive for HbsAg and HBeAg. […]

HbeAg = experiment: Synthesis/secretion of HbeAg in hepatoma cell line, semi-quantitative ELISA; assay type: cell-based, hepatitis B virus; settings: HepG2 2.2.1 cells, 22 hours
Experimental: as §1, §2

[1] = tested on: hepatoma cell line HepG2 2.2.15; experiment: In vitro cytotoxic test on hepatoma cell line, MTT assay, survival rates; assay type: cell-based, human; settings: HepG2 2.2.1 cells, 10 μg/ml, 22 hours, compared with blank group
Experimental: Hepatoma cell inhibiting effects of cyclohexenone compounds of Antrodia camphorata from example 1 were assessed according to the anticancer-drug screening model of National Cancer Institute (NCI). The compound 4-hydroxy-2,3-dimethoxy-6-methyl-5(3,7,11-trimethyl-dodeca-2,6,10-trienyl)-cyclohex-2-enone from example 1 was added into the culture media of hepatoma cell line HepG2 2.2.15 to test the survival rates. Survival of cells was analyzed using MTT assay. HepG2 2.2.15 cell line was derived from human hepatoma, which can secrete infectious HBV.
MTT assay is commonly used to analyze cell proliferation, survival rate of viable cells and cytotoxicity. MTT (3[4,5-dimethylthiazol-2-yl]-2,5-diphenyltetrazolium bromide) is a yellow dye which can be converted to water-insoluble purple formazan on the reductive cleavage of its tetrazolium ring by the succinate tetrazolium reductase in mitrochondria of cells. The amount of formazan produced is used to detect the number of viable cells and calculate the survival rates.
The HepG2 2.2.1 cells were cultivated in minimum essential medium (MEM, Gibco Co., USA) containing 12 essential amino acids, glutamine, 8 vitamins, and supplemented with 10% fetal bovine serum and 200 μg/ml of antibiotic G418 for 24 hours. […] The absorbances were measured at 570 nm with an ELISA Reader and compared with that of the blank group to calculate the survival rates.

Compound: COC1=C(OC)C(O)C(C/C=C(\C)CC/C=C(\C)CCC=C(C)C)C(C)C1=O (centres unmarked) [cyclohexenone from Antrodia camphorata, 4-hydroxy-2,3-dimethoxy-6-methyl-5(3,7,11-trimethyl-dodeca-2,6,10-trienyl)-cyclohex-2-enone]
- Synthesis of HbsAg (HbsAg; 0.1 μg/ml): below 60%
- Synthesis of HbsAg (decrease could reach to as low as) (HbsAg; 10 μg/ml): 28%
- Synthesis of HbeAg (HbeAg; 0.1 μg/ml): below 84%
- Synthesis of HbeAg (decrease could reach to as low as) (HbeAg; 1 μg/ml): 57%
- cell survival rates [1]: lower than 81%
